Test results taken from patent publication US20240123022A1, “A STABLE ANTI-ANGIOGENIC AND ANTI-INFLAMMATORY PHARMACEUTICAL FORMULATION AND PHARMACEUTICAL COMBINATION FOR TREATMENT AND PREVENTION OF PSORIASIS” (priority 2021, published 2024).

Legend:
MAPK1 (MEK 1) = assay: Z′LYTE activity assay, tyrosine kinases; format: biochemical; conditions: 10 μg/ml-250 μg/ml
Description: (§1) Tyrosine kinases play key role in pathogenesis of psoriasis IS217 was investigated for possible inhibition of various tyrosine kinase, which play crucial role in pathogenesis of psoriasis. The method employed to detect the effect was Z′LYTE activity assay.

other kinases = assay: Z′LYTE activity assay, tyrosine kinases; format: biochemical; conditions: low concentration tested of 10 μg/ml
Description: as §1

JAK-STAT pathway = assay: Z′LYTE activity assay, tyrosine kinases; format: biochemical
Description: as §1

in vitro = conditions: human, microsomes
Procedure: Metabolic stability assay was performed to determine in vitro half-life and intrinsic clearance of test item. […] Following centrifugation, the supernatant was analyzed on HPLC-UV.

HUVEC cells = format: cell-based, human; conditions: 100-1000 μg/ml
Procedure: The study was performed to determine anti-angiogenic effect of IS217 in HUVEC cell line by assessing anti-proliferative effects of test item. Here XTT assay was used to determine the cell viability in test cells. HUVEC cells were treated with the test item IS217 (100-1000 μg/ml) and bevacizumab (1 mg/ml) concentrations was used as positive controls.

[1] = system: TNF-α, IFN-γ, TARC, TSLP, IL-6, IL-8, IL-23, IL-17A and IL-1-0 levels; assay: Cytokine levels in LPS stimulated RAW264.7 cells and HaCaT cells; format: cell-based; conditions: LPS stimulated RAW264.7 and HaCaT cells, vs untreated controls
Description: In pathogenesis of psoriasis, angiogenesis and tyrosine kinases involves cell proliferation, cell migration, DNA Fragmentation and tube formation in endothelial cells. […] RAW264.7 cells (Murine macrophage cell line) which is stimulated with LPS and in HaCaT cells human keratinocytes (HaCaT) TNF-α, IFN-γ, TARC, TSLP, IL-6, IL-8, IL-23, IL-17A and IL-1-0 levels were overexpressed in disease pathogenesis, but when treated with IS217, all the above mentioned cytokines levels are decreased when compared with untreated controls.

H-FAKKFAKKFK-OH [IS217, H-Phe-Ala-Lys-Lys-Phe-Ala-Lys-Lys-Phe-Lys-OH]
inhibition of MAPK1 (MEK 1) (MAPK1 (MEK 1)): good inhibition | inhibition of other kinases (other kinases): Moderate to low inhibition | inhibition of JAK-STAT pathway (JAK-STAT pathway): No inhibition | half-life at 100 μg/ml (in vitro): 47.9 min | metabolised at 1 h, 100 μg/ml (in vitro): ~58% | microsomal CLint at 100 μg/ml (in vitro): 14.5 µL/min/mg | percentage inhibition of FBS induced proliferation of HUVEC cells (HUVEC cells): effective upto 1000 μg/ml only | cytokines levels (TNF-α, IFN-γ, TARC, TSLP, IL-6, IL-8, IL-23, IL-17A, IL-1-0) [1]: decreased
